According to patent US20220204575A1, “MODULATING SURVIVAL OF THERAPEUTIC CELLS AND METHODS, CELLS AND NUCLEIC ACIDS RELATED THERETO” (The Regents of the University of California, priority 2019, published 2022):

How the values were obtained:
Type in all cases: cell-based
[1] = test system: human primary CD4 T cells; experiment: Anti-Her2 synNotch driving pro-apoptotic BCL-2 family protein X, T cell survival with antigen-expressing target cells; details: in the presence of antigen-expressing target cells
Protocol: For example, a circuit was designed, as schematically depicted in FIG. 27, with an anti-Her2 synNotch driving expression of a pro-apoptotic BCL-2 family protein “X”, where X stands for the various pro-apoptotic BCL-2 family members were tested in the depicted circuit. As shown, upon the anti-Her2 scFv portion of the synNotch receptor binding Her2 expressed by a target cell, the transcription factor (TF) portion of the synNotch, containing Gal4-VP64, is released and inducing expression of the pro-apoptotic BCL-2 family protein “X”. The level of induced apoptosis in the presence of cells expressing the target antigen, as compared to control cells not expressing the target antigen, was then assessed.
Results of testing BID, tBID, PUMA, BMF, HRK and BIK as pro-apoptotic BCL-2 family protein “X” in this system are shown in FIG. 28, along with a negative control employing BFP in place of the pro-apoptotic BCL-2 family protein “X”.
Thus, the therapeutic cells encoding the BID circuit were able to survive BID induction.

T cells = experiment: Basal T cell death from inducible response element constructs in the absence of synNotch antigen
Description: Differences in the potency of various BCL-2 family members in inducible systems for therapeutic cell population control were also investigated and differences in potency were observed. For example, molecular circuits were designed and tested that included a response element construct including a UAS, inducible by the released transcription factor (TF) domain of a synNotch receptor, driving expression of various different BCL-2 family members (e.g., BIM, tBID, etc.) and a constitutive reporter (mCherry) (see schematic depiction provided in FIG. 19). Upon binding its target antigen, the synNotch receptor releases the TF domain which activates the UAS thereby driving expression of the respective BCL-2 family protein and the mCherry reporter is used to observe the size of the cell population thereafter.

primary human T cells = experiment: Constitutive overexpression of pro-apoptotic BCL-2 family proteins in T cells, FACS at culture day 12
Protocol: The abilities of several pro-apoptotic proteins (e.g., BIM, truncated Bid (tBID), and BAD) to induce T cell apoptosis when synthetically overexpressed from a constitutive promoter were tested. The tested T cells were also engineered to constitutively overexpress anti-apoptotic BCL-2.
Without being bound by theory, these effects were likely due to leaky expression of BIM, the high effectiveness of BIM in inducing apoptosis, or a combination thereof.

engineered T cells = experiment: Inducible tBID circuit with varied levels of constitutive BCL-2 expression, T cell survival; details: constant antigen-induced tBID expression, varied constitutive BCL-2
Description: The ability of anti-apoptotic BCL-2 to buffer a pro-apoptotic protein was further tested in an inducible tBID circuit (described in more detail below) with varied levels of constitutive BCL-2 expression (schematically depicted in FIG. 5). In this experiment, constant levels of tBID expression were induced by the presence of antigen expressing target cells, BCL-2 expression levels were varied, and the amount of T cell survival at different levels of BCL-2 expression was quantitated (FIG. 6).

HRK: pro-apoptotic HRK protein, human UniProt O00198, SEQ ID NO: 103
induced apoptosis of T cells [1]: induce apoptosis of human primary CD4 T cells

BMF: pro-apoptotic BMF protein, human UniProt Q96LC9
induced apoptosis of T cells [1]: induce apoptosis of human primary CD4 T cells

BIM: pro-apoptotic BCL-2 family protein, human BIM UniProt O43521, SEQ ID NO: 99
basal T cell death from leaky expression (T cells; absence of synNotch target antigen, mCherry reporter): sufficient to cause widespread T cell death
cell death from uninduced inducible construct (T cells; uninduced, in the absence of co-expression with anti-apoptotic BCL-2): leads to significant levels of cell death
ability to induce T cell apoptosis / drive T cell death (primary human T cells; constitutive expression, with constitutive overexpression of BCL-2, culture day 12): drove significant apoptosis

BCL-2: anti-apoptotic BCL-2 protein, human UniProt P10415, SEQ ID NO: 105
T cell survival at different levels of BCL-2 expression (engineered T cells): titratably buffers against apoptosis
T cell survival at different levels of BCL-2 expression (engineered T cells; listed as BCL2): less tBID-induced apoptosis
buffering against apoptotic effects of tBID and BIM (primary human T cells; constitutive co-expression of BCL-2): at least partially buffer against the apoptotic effects
